The results in this text go back to patent US10575526B2 (priority 2004, dated 2020).

SMILES strings stand for the structures.

Experiment [1] deals with leaf rust spores (Puccinia triticina). The experiment is described as follows: Leaf rust infection of treated glyphosate tolerant wheat in the SAR study. The format is in vivo. The note with it: glyphosate tolerant wheat inoculated one day after treatment; WeatherMAX 0.75 lb/acre, INA 200 ppm.
For experiment [2], the system named is SAR genes, WIR2 (PR5) and WCI3. Nature of the experiment: Time-course Northern blot analysis of SAR gene induction in glyphosate tolerant wheat. The settings on record: leaf tissues of glyphosate tolerant wheat; INA 200 ppm in 0.1% surfactant blank.

As to `O=C(O)c1cc(Cl)nc(Cl)c1` [INA, 2,6-dichloro isonicotinic acid], in experiment [1], the “leaf rust infection / resistance” value is “did not confer leaf rust resistance”. In addition, in experiment [2], the “WCI3 gene induction (Northern blot)” value is recorded as “induced”.
